Measurements taken from PubChem BioAssay AID1963849 (Molecular Pharmacology Branch, DTP, NCI, 2024).
Several values for one entry are separate records, joined by “and”; a condition that tells them apart may be missing. Equal entries are not always repeated.

Tested on: 299254-011-R-J1-PDC complex spheroid viability
Experiment: Anticancer human tumor 299254-011-R-J1-PDC patient-derived melanoma cell line growth inhibition [POLQ]
Details: for viability, T/C: stronger effect = lower value
Experimental: Multicellular complex tumor spheroid response to Polymerase (POL) inhibitors (novobiocin, ART-558, RP6685) in combination with a variety of drugs and investigational agents in selected tumor cell lines
The POL inhibitors (novobiocin, ART-558, and RP6685) were evaluated both individually and in combination with standard of care and investigational anticancer small molecules within a complex spheroid model of solid tumors. . Complex spheroids include a stromal component modeled by human endothelial cells (HUVEC) and fibroblasts modeled by human mesenchymal stem cells (MSCs). The concentration ranges selected for each drug and investigational agent were based upon clinically achievable concentrations if the clinical Cmax of the agent was known.
Compounds. The drugs and investigational agents: novobiocin (NSC847541), ART-558 (NSC835418), RP-6685 (NSC848927), peposertib (NSC802822), ceralasertib (NSC780249), elimusertib (NSC800525), camonsertib (NSC841442), AZD-1390 (NSC803789), olaparib (NSC753686), talazoparib (NSC767125), rucaparib (NSC756644), sotorasib (NSC818433), MRTX-1133 (NSC836407), SN-38 (NSC673596), topotecan (NSC609699), epotoside (NSC141540), doxorubicin (NSC123127), gemcitabine (NSC613327), 5-fluorouracil (NSC19893), paclitaxel (NSC125973), vemurafenib (NSC761431), MSA-2 (NSC828583), SN-011 (NSC837082), adavosertib (NSC754352), prexasertib (NSC758257), carboplatin (NSC241240) and oxaliplatin (NSC266046), were obtained from the National Cancer Institute (NCI) Developmental Therapeutics Program Chemical Repository (21). The FDA-approved anticancer drug set is available from the Developmental Therapeutics Program at https://dtp.cancer.gov/organization/dscb/obtaining/. […] The stock solutions were prepared in dimethyl sulfoxide (DMSO, Sigma-Aldrich, St. Louis, MO, cat. D2650), except for the platinum compounds which were prepared in saline (Quality Biological, Gaithersburg, MD, cat. 114-055-101), at 800-fold the tested concentration and stored at -70 degrees C prior to their use. All drugs and investigational agents were tested over a range starting from a high concentration at or near the clinical Cmax and decreasing in half-log increments. If the clinical Cmax for an agent had not been determined, the highest concentration tested was 10 microM, except for SN-38, which was tested at a high concentration of 1 microM.
Cell Culture. All cells were maintained in an incubator at 37 degrees C and 5% CO2 with 95% humidity. The PDC lines were cultured according to standard operating procedures established by the NCI PDMR (https://pdmr.cancer.gov). Table 3 of the manuscript, lists the cell lines along with the number of the three cell types plated to form the mct-spheroids and media for tumor cell growth. After thawing, all PDC lines, except 997537-175-T-J1-PDC and 415267-285-R-J2-PDC, were cultured in Matrigel-coated flasks prepared with a working solution of 1X Ham's F-12 nutrient mix, without supplementation (Thermo Fisher Scientific, cat. 11765054), 100 U/mL penicillin-streptomycin (Thermo Fisher Scientific, cat. 15140122), and 2.5% Matrigel (Corning Inc., Corning, NY, cat. 354248) for the first three passages. The two PDC lines 997537-175-T-J1-PDC and 415267-285-R-J2-PDC were cultured on uncoated flasks. The 857933-349-R-J2-PDC line was cultured in 6C/Colon 1B media containing advanced DMEM/F-12 (Thermo Fisher Scientific, cat. 12634028), 10 mM HEPES (Thermo Fisher Scientific, cat. 15630080), 1X GlutaMAX supplement (Thermo Fisher Scientific, cat. 35050061), 0.1 mg/mL primocin (InvivoGen, San Diego, CA, cat. ant-pm-2), 10% defined fetal bovine serum, heat inactivated (HyClone Laboratories Inc., Logan, UT, cat. SH30070.03HI), 50% L-WRN conditioned media (ATCC, cat. CRL-3276), 1.25 mM N-Acetyl-L-cysteine (Sigma-Aldrich, cat. A9165), 10 mM nicotinamide (Sigma-Aldrich, cat. N0636), 1X B-27 supplement (Thermo Fisher Scientific, cat. 17504044), 1X N-2 supplement (Thermo Fisher Scientific, cat. […]

[1] = curve of first compound, second compound 0.0316 µM
[2] = curve of first compound, second compound 0.1 µM
[3] = curve of first compound, second compound 0.316 µM
[4] = curve of first compound, second compound 1 µM
[5] = curve of first compound, second compound 3.16 µM
[6] = curve of first compound, second compound 10 µM
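Further: spheroids exposed to drugs for one week before measurement.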
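Wherever viability, T/C is given: percent viability relative to DMSO vehicle control taken as 100%.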

Compound: CC(=O)O[C@H]1C(=O)[C@@]2(C)[C@H]([C@H](OC(=O)c3ccccc3)[C@]3(O)C[C@H](OC(=O)[C@H](O)[C@@H](NC(=O)c4ccccc4)c4ccccc4)C(C)=C1C3(C)C)[C@]1(OC(C)=O)CO[C@@H]1C[C@@H]2O + Nc1ccc(C#CCN(C(=O)Cc2ncc(C(F)(F)F)cc2C(F)(F)F)c2ccc(F)cc2)nn1
- IC50 [1]: 153 nM
- IC50 [2]: 85.6 nM
- IC50 [3]: 109 nM
- IC50 [4]: 50.2 nM
- IC50 [5]: 24.9 nM
- IC50 [6]: < 9.49 nM
- viability, T/C (second compound 0.0316 µM, first compound 0.00949 µM): 90.2%
- viability, T/C (second compound 0.0316 µM, first compound 0.03 µM): 76.6%
- viability, T/C (second compound 0.0316 µM, first compound 0.0949 µM): 59.5%
- viability, T/C (second compound 0.0316 µM, first compound 0.3 µM): 37.8%
- viability, T/C (second compound 0.0316 µM, first compound 0.949 µM): 28.6%
- viability, T/C (second compound 0.0316 µM, first compound 3 µM): 24.8%
- viability, T/C (second compound 0.1 µM, first compound 0.00949 µM): 103%
- viability, T/C (second compound 0.1 µM, first compound 0.03 µM): 78.6%
- viability, T/C (second compound 0.1 µM, first compound 0.0949 µM): 43.7%
- viability, T/C (second compound 0.1 µM, first compound 0.3 µM): 39.5%
- viability, T/C (second compound 0.1 µM, first compound 0.949 µM): 28.4%
- viability, T/C (second compound 0.1 µM, first compound 3 µM): 26.9%
- viability, T/C (second compound 0.316 µM, first compound 0.00949 µM): 84.2%
- viability, T/C (second compound 0.316 µM, first compound 0.03 µM): 85.3%
- viability, T/C (second compound 0.316 µM, first compound 0.0949 µM): 52%
- viability, T/C (second compound 0.316 µM, first compound 0.3 µM): 32.5%
- viability, T/C (second compound 0.316 µM, first compound 0.949 µM): 27.8%
- viability, T/C (second compound 0.316 µM, first compound 3 µM): 24.5%
- viability, T/C (second compound 1 µM, first compound 0.00949 µM): 80.8%
- viability, T/C (second compound 1 µM, first compound 0.03 µM): 58.2%
- viability, T/C (second compound 1 µM, first compound 0.0949 µM): 39.2%
- viability, T/C (second compound 1 µM, first compound 0.3 µM): 32.3%
- viability, T/C (second compound 1 µM, first compound 0.949 µM): 21.7%
- viability, T/C (second compound 1 µM, first compound 3 µM): 25.4%
- viability, T/C (second compound 3.16 µM, first compound 0.00949 µM): 74.7%
- viability, T/C (second compound 3.16 µM, first compound 0.03 µM): 43.5%
- viability, T/C (second compound 3.16 µM, first compound 0.0949 µM): 35.5%
- viability, T/C (second compound 3.16 µM, first compound 0.3 µM): 25.9%
- viability, T/C (second compound 3.16 µM, first compound 0.949 µM): 22.7%
- viability, T/C (second compound 3.16 µM, first compound 3 µM): 25.4%
- viability, T/C (second compound 10 µM, first compound 0.00949 µM): 47.5%
- viability, T/C (second compound 10 µM, first compound 0.03 µM): 36%
- viability, T/C (second compound 10 µM, first compound 0.0949 µM): 26.9%
- viability, T/C (second compound 10 µM, first compound 0.3 µM): 20.9%
- viability, T/C (second compound 10 µM, first compound 0.949 µM): 24.8%
- viability, T/C (second compound 10 µM, first compound 3 µM): 23.2%

Compound: CC1COCCN1c1cc(C2(O)CC3CCC(C2)O3)c2cnn(-c3ccn[nH]3)c2n1 (configuration not stated)
- viability, T/C (compound 0.0316 µM): 84.1% and 85.2% and 80.8%
- viability, T/C (compound 0.1 µM): 66.5% and 64.7% and 57.4%
- viability, T/C (compound 0.316 µM): 34.4% and 36.9% and 39.6%
- viability, T/C (compound 1 µM): 26.3% and 17.9% and 25.1%
- viability, T/C (compound 3.16 µM): 14.4% and 15.1% and 20.3%
- viability, T/C (compound 10 µM): 8.87% and 10.7% and 12.4%
- IC50 (curve of compound): 190 nM and 182 nM and 159 nM

Compound: CC1COCCN1c1cc(-c2ccnn2C)c2ccnc(-c3ccn[nH]3)c2n1 (configuration not stated)
- viability, T/C (compound 0.0316 µM): 96.6% and 111% and 99%
- viability, T/C (compound 0.1 µM): 67.8% and 70% and 78.4%
- viability, T/C (compound 0.316 µM): 46.7% and 46.5% and 50.2%
- viability, T/C (compound 1 µM): 30.8% and 31.4% and 31.7%
- viability, T/C (compound 3.16 µM): 21.6% and 31.1% and 23.9%
- viability, T/C (compound 10 µM): 18.8% and 20.6% and 22.7%
- IC50 (curve of compound): 255 nM and 265 nM and 320 nM

Compound: COc1cc(C2c3cc4c(cc3C(OC3OC5COC(C)OC5C(O)C3O)C3COC(=O)C23)OCO4)cc(OC)c1O (configuration not stated) + Nc1ccc(C#CCN(C(=O)Cc2ncc(C(F)(F)F)cc2C(F)(F)F)c2ccc(F)cc2)nn1
- IC50 [1]: > 10000 nM
- IC50 [2]: > 10000 nM
- IC50 [3]: > 10000 nM
- IC50 [4]: > 10000 nM
- IC50 [5]: > 10000 nM
- IC50 [6]: > 10000 nM
- viability, T/C (second compound 0.0316 µM, first compound 0.0316 µM): 112%
- viability, T/C (second compound 0.0316 µM, first compound 0.1 µM): 105%
- viability, T/C (second compound 0.0316 µM, first compound 0.316 µM): 87.5%
- viability, T/C (second compound 0.0316 µM, first compound 1 µM): 92.2%
- viability, T/C (second compound 0.0316 µM, first compound 3.16 µM): 78.7%
- viability, T/C (second compound 0.0316 µM, first compound 10 µM): 63.5%
- viability, T/C (second compound 0.1 µM, first compound 0.0316 µM): 112%
- viability, T/C (second compound 0.1 µM, first compound 0.1 µM): 94.4%
- viability, T/C (second compound 0.1 µM, first compound 0.316 µM): 112%
- viability, T/C (second compound 0.1 µM, first compound 1 µM): 84.5%
- viability, T/C (second compound 0.1 µM, first compound 3.16 µM): 89.7%
- viability, T/C (second compound 0.1 µM, first compound 10 µM): 69.7%
- viability, T/C (second compound 0.316 µM, first compound 0.0316 µM): 114%
- viability, T/C (second compound 0.316 µM, first compound 0.1 µM): 100%
- viability, T/C (second compound 0.316 µM, first compound 0.316 µM): 88.5%
- viability, T/C (second compound 0.316 µM, first compound 1 µM): 106%
- viability, T/C (second compound 0.316 µM, first compound 3.16 µM): 83.7%
- viability, T/C (second compound 0.316 µM, first compound 10 µM): 74.8%
- viability, T/C (second compound 1 µM, first compound 0.0316 µM): 108%
- viability, T/C (second compound 1 µM, first compound 0.1 µM): 99.2%
- viability, T/C (second compound 1 µM, first compound 0.316 µM): 90.3%
- viability, T/C (second compound 1 µM, first compound 1 µM): 99.6%
- viability, T/C (second compound 1 µM, first compound 3.16 µM): 71.8%
- viability, T/C (second compound 1 µM, first compound 10 µM): 82.3%
- viability, T/C (second compound 3.16 µM, first compound 0.0316 µM): 99.7%
- viability, T/C (second compound 3.16 µM, first compound 0.1 µM): 102%
- viability, T/C (second compound 3.16 µM, first compound 0.316 µM): 88.9%
- viability, T/C (second compound 3.16 µM, first compound 1 µM): 80.7%
- viability, T/C (second compound 3.16 µM, first compound 3.16 µM): 76.8%
- viability, T/C (second compound 3.16 µM, first compound 10 µM): 69.3%
- viability, T/C (second compound 10 µM, first compound 0.0316 µM): 98.8%
- viability, T/C (second compound 10 µM, first compound 0.1 µM): 100%
- viability, T/C (second compound 10 µM, first compound 0.316 µM): 89.9%
- viability, T/C (second compound 10 µM, first compound 1 µM): 75.5%
- viability, T/C (second compound 10 µM, first compound 3.16 µM): 89.1%
- viability, T/C (second compound 10 µM, first compound 10 µM): 71.7%

Compound: O=c1[nH]cc(F)c(=O)[nH]1
- viability, T/C (compound 0.0316 µM): 95.9% and 94% and 105%
- viability, T/C (compound 0.1 µM): 103% and 102% and 106%
- viability, T/C (compound 0.316 µM): 105% and 118% and 103%
- viability, T/C (compound 1 µM): 96.4% and 103% and 93.8%
- viability, T/C (compound 3.16 µM): 90.9% and 85.9% and 98.6%
- viability, T/C (compound 10 µM): 74.2% and 79.7% and 81.9%
- IC50 (curve of compound): > 10000 nM

Compound: Nc1ccc(C#CCN(C(=O)Cc2ncc(C(F)(F)F)cc2C(F)(F)F)c2ccc(F)cc2)nn1
- viability, T/C (compound 0.0316 µM): 102% [middle of 13 runs]
- viability, T/C (compound 0.1 µM): 104% [middle of 13 runs]
- viability, T/C (compound 0.316 µM): 102% [middle of 13 runs]
- viability, T/C (compound 1 µM): 96.5% [middle of 13 runs]
- viability, T/C (compound 3.16 µM): 96.5% [middle of 13 runs]
- viability, T/C (compound 10 µM): 95.6% [middle of 13 runs]
- IC50 (compound alone, run of 12/05/2023): > 10000 nM
